Columns and labels:
KIR6.2/NMT 55-SUR2A = experiment: Inside-out patch-clamp potassium current, ATP sensitivity; type: cell-based, mouse; conditions: 100 μM ATP, COS1 cells containing KIR6.2/NMT 55-SUR2A, 0 mV, room temperature (FIG. 3C)
Protocol: (§1) Cellular Electrophysiology: Electrophysiology experiments were carried out as previously described by Chutkow el al., with modifications. Chutkow W, et al., “Alternative splicing of sur2 Exon 17 regulates nucleotide sensitivity of the ATP-sensitive potassium channel,” J. Biol. Chem. 274:13656-13665 (1999). Briefly, KIR^6.2 was sub-cloned to 5′ of a bicistronic vector (pIRGFP, as pNQ56.) to express the desired NMT-SUR2 short forms and GFP under control of a cytomegalovirus promoter. The KIR6.2 construct was transiently expressed in COS1 cell lines that stably expressed NMT 55-SUR2A or NMT 55-SUR2B. Cells expressing GFP were used for cellular electrophysiological analysis.
(§2) Potassium currents were measured at room temperature (˜22-25° C.) by an inside-out patch-clamp technique. The bath solution (cytoplasmic side) comprised the following: 140 mM KCl, 2 mM cthylene glycol-bis(β-aminioethyl ether)-N,N,N′,N′-tetraacetic acid (EGTA), 5.5 mM glucose and 5 mM N-2-hydroxyethylpiperazine-N′-2-ethanesulfonic acid (HEPES) with pH 7.3. The pH was adjusted to the designated values using KOH or HCl. 100 μM K2ATP (Sigma) was used to test the ATP sensitivity, and the ATP-containing solutions were freshly prepared. […] Signals were recorded continuously at 0 mV using a patch-clamp amplifier (Axopatch 200; Molecular Devices; Toronto, Canada) and Clampex 10.0 software (Molecular Devices).

KIR6.2/NMT 55-SUR2B = experiment: as above; type: cell-based, mouse; conditions: 100 μM ATP, COS1 cells containing KIR6.2/NMT 55-SUR2B, 0 mV, room temperature (FIG. 4C)
Protocol: as §1, §2

KIR6.2 (mouse) = KIR6.2 (mouse) (UniProt Q61743); experiment: cell-based or functional assay
Chain of UniProt Q61743 (Q61743 whole entry): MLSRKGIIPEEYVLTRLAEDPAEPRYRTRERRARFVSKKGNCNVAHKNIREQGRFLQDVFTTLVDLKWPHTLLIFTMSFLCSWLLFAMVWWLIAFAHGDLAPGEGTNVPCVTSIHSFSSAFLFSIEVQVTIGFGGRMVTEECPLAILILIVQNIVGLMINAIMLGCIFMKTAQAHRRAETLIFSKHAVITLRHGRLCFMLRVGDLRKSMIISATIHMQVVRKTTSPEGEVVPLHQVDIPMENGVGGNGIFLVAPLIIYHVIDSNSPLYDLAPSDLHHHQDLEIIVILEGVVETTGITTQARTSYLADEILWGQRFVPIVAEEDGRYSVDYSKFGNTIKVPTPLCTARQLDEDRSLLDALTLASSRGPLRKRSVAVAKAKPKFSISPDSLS

Molecule	IKATP-like current (KIR6.2/NMT 55-SUR2A)	IKATP-like current (KIR6.2/NMT 55-SUR2B)	growth of E. coli K+ uptake mutant 6106 in M9 minimal medium pH 5.5 (KIR6.2 (mouse))
Nc1ncnc2c1ncn2[C@@H]1O[C@H](COP(=O)([O-])OP(=O)(O)OP(=O)([O-])O)[C@@H](O)[C@H]1O.[K+].[K+] [ATP]	inhibited	inhibited	–
SUR2B short form (~55 kDa) (from UniProt P70170 1-1504)	–	–	12%
